# Experimental data reported in PMC4502315, “High Potency of a Novel Resveratrol Derivative, 3,3′,4,4′-Tetrahydroxy-trans-stilbene, against Ovarian Cancer Is Associated with an Oxidative Stress-Mediated Imbalance between DNA Damage Accumulation and Repair” (Oxidative Medicine and Cellular Longevity, 2015).
# How the values were obtained:
# HOSE cells [1] = experiment: SA-β-Gal activity (senescence), HOSE cells; format: cell-based, human; conditions: 24 h, percentage of control cells
# Protocol: (§1) The activity of SA-β-Gal in the cell extracts was quantified by measuring the rate of conversion of 4-methylumbelliferyl-β-D-galactopyranoside to 4-methylumbelliferone, as described in [19]. In order to visualize expression of the enzyme in the cancer cell cytoplasm, cytochemical staining for SA-β-Gal was performed according to Dimri et al..
# [2] = tested on: superoxide dismutase (SOD); experiment: SOD activity in cell lysates, OVCAR-3; format: cell-based, human; conditions: 24 h, 10, 50, 100 μM tested
# Protocol: (§2) Total activity of superoxide dismutase (SOD) was measured in cell lysates with a commercially available kit (R&D Systems Europe, Abingdon, UK), while the activity of catalase (CAT) was estimated by using the OxiSelect Catalase Activity Assay Kit (Cell Biolabs Inc., San Diego, CA, USA). Both assays were performed according to the manufacturer's instructions.
# A2780 cells = experiment: Cell proliferation (CFDA SE), A2780; format: cell-based, human; conditions: low-density cultures, 24 h, 10, 50, 100 μM tested
# Protocol: (§3) Cell proliferative potential was determined using Cell Proliferation Kit I (PromoKine, Heidelberg, Germany) according to the manufacturer's instructions. In brief, cells were probed for 15 min with 5-(and 6)-carboxyfluorescein diacetate, a succinimidyl ester (CFDA SE; 2 μM) which diffuses into cells, covalently binds to proteins, and becomes fluorescent upon its hydrolysis by intracellular esterases. The fluorescence emitted by the cells (the dye is inherited by the daughter cells through successive divisions) was recorded using a Victor2 spectrofluorometer (Perkin-Elmer, Turku, Finland) with excitation at 435 nm and emission at 535 nm.
# HPMCs [3] = experiment: SA-β-Gal activity (senescence), HPMCs; format: cell-based, human; conditions: 24 h, percentage of control cells
# Protocol: as §1
# SKOV-3 cells [4] = experiment: Cell proliferation (CFDA SE), SKOV-3; format: cell-based, human; conditions: low-density cultures, 24 h, 10, 50, 100 μM tested
# Protocol: as §3
# SKOV-3 cells [5] = experiment: SA-β-Gal activity (senescence), SKOV-3; format: cell-based, human; conditions: 24 h, 10, 50, 100 μM tested
# Protocol: as §1
# OVCAR-3 = experiment: LDH release assay, OVCAR-3; format: cell-based; conditions: Homo sapiens, 24 h; for IC50: CalcuSyn
# Protocol: As per LDH release, the measurements were performed using the commercially available Pierce LDH Cytotoxicity Assay Kit (Pierce Biotechnology, Rockford, IL, USA). In this assay, cells with damaged plasma membranes release LDH into the culture environment; then the enzyme catalyses the conversion of lactate to pyruvate, which is accompanied by a reduction of NAD^+ to NADH. Afterwards, diaphorase uses NADH to reduce a tetrazolium salt to a formazan whose level is proportional to LDH activity. The absorbance emitted by the formazan was monitored at 490 nm with a reference wavelength of 680 nm.
# In order to examine the effect of 3,3′,4,4′-THS on the viability of ovarian cancer cells and to compare its activity with RVT, subconfluent cultures of A2780, OVCAR-3, and SKOV-3 cells were subjected to a wide range of stilbene concentrations (0–500 μM) for 24 h; then MTT and LDH release assays were performed.
# HPMCs [6] = experiment: LDH release assay, HPMCs; format: cell-based, human; conditions: Homo sapiens, 24 h, CalcuSyn
# p38 MAPK [7] = experiment: p38 MAPK activation (FACE ELISA), A2780; format: cell-based, human; conditions: 24 h, 10, 50, 100 μM tested
# Protocol: (§4) Activation of p38 MAPK was examined using the Fast Activated Cell-Based ELISA (FACE) p38 kit (Active Motif) according to the manufacturer's instructions. In brief, cells were fixed with 4% formaldehyde and incubated with a primary antibody that recognizes either phosphorylated p38 or total p38 overnight at 4°C. Then the cells were washed and incubated with a secondary HRP-conjugated antibody for 1 h at room temperature. The color reaction that developed was read using a spectrofluorometer at 450 nm wavelength.
# (§5) The results were expressed as a ratio of phosphorylated to total p38 activity.
# [8] = tested on: superoxide dismutase (SOD); experiment: SOD activity in cell lysates, HOSE cells; format: cell-based, human; conditions: 24 h, percentage of control cells
# Protocol: as §2
# HOSE cells [9] = experiment: ROS production (H2DCFDA), HOSE cells; format: cell-based, human; conditions: 24 h, percentage of control cells
# Protocol: ROS production was assessed in cells probed with a fluorescent dye, 2′,7′-dichlorodihydrofluorescein diacetate (H2DCFDA; 5 μM) (Molecular Probes, Eugene, USA) for 45 min at 37°C. Fluorescence intensity in cell lysates was monitored in a Victor2 spectrofluorometer with excitation at 485 nm and emission at 535 nm.
# HOSE cells [10] = experiment: Cell proliferation (CFDA SE), HOSE cells; format: cell-based, human; conditions: 24 h, percentage of control cells
# Protocol: as §3
# caspase-8 = experiment: Caspase-8 activity in ovarian cancer cell lysates; format: cell-based, human; conditions: ovarian cancer cells (A2780, OVCAR-3, SKOV-3); 24 h
# Protocol: Identification of apoptosis was based on the presence of DNA condensation in cells stained with a fluorescent dye, Hoechst 33258 (Molecular Probes, Eugene, OR). Cells were grown on Lab-Tek Chamber Slides (Nunc, Roskilde, Denmark), fixed with 4% formaldehyde for 10 min and washed twice with PBS. Then the cells were incubated with Hoechst 33258 (0.1 μg/mL) for 5 min in the dark. After washing with PBS, stained nuclei were observed and counted under a Zeiss Axio Observer D1 fluorescence microscope (Carl Zeiss, Jena, Germany). The activity of caspases 3, 8, and 9 was quantified in the cell lysates using specific colorimetric kits (Abcam, Cambridge, UK) according to the manufacturer's instructions.
# p38 MAPK [11] = experiment: p38 MAPK activation (FACE ELISA), OVCAR-3; format: cell-based, human; conditions: 24 h, 10, 50, 100 μM tested
# Protocol: as §4, §5
compound,measurement,setting,value
"Oc1ccc(/C=C/c2ccc(O)c(O)c2)cc1O [3,3′,4,4′-THS, 3,3′,4,4′-tetrahydroxy-trans-stilbene]",SA-β-Gal,HOSE cells [1]; 10 μM,99 ± 2%
same,SA-β-Gal,HOSE cells [1]; 50 μM,101 ± 3%
same,SA-β-Gal,HOSE cells [1]; 100 μM,102 ± 5%
same,"SOD activity, effect in words",[2],increased SOD at 10 μM and decreased the activity of the enzyme at 50 and 100 μM
same,"proliferation, effect in words",A2780 cells,evident at as low a concentration as 10 μM
same,SA-β-Gal,HPMCs [3]; 10 μM,76 ± 3^∗# %
same,SA-β-Gal,HPMCs [3]; 50 μM,104 ± 4%
same,SA-β-Gal,HPMCs [3]; 100 μM,99 ± 3%
same,"proliferation, effect in words",SKOV-3 cells [4],evident at as low a concentration as 10 μM
same,"SA-β-Gal activity (senescence), effect in words",SKOV-3 cells [5],significantly greater than those of RVT at each concentration
same,viability at 10 µM,"OVCAR-3; 10 μM, percentage of control cells",62 ± 12%
same,viability at 50 µM,"OVCAR-3; 50 μM, percentage of control cells",53 ± 3%
same,viability at 100 µM,"OVCAR-3; 100 μM, percentage of control cells",46 ± 3%
same,IC50,OVCAR-3,85 µM
same,IC50,HPMCs [6],498 µM
same,"p38 MAPK activity (phosphorylated/total), effect in words",p38 MAPK [7],elicited its stimulatory activity at 50 and 100 μM
same,SOD,[8]; 10 μM,122 ± 1^∗# %
same,SOD,[8]; 50 μM,141 ± 5^∗# %
same,SOD,[8]; 100 μM,136 ± 2^∗# %
same,ROS,HOSE cells [9]; 10 μM,75 ± 4^∗# %
same,ROS,HOSE cells [9]; 50 μM,72 ± 3^∗# %
same,ROS,HOSE cells [9]; 100 μM,99 ± 4 %
same,Proliferation,HOSE cells [10]; 10 μM,116 ± 2^∗ %
same,Proliferation,HOSE cells [10]; 50 μM,103 ± 1%
same,Proliferation,HOSE cells [10]; 100 μM,99 ± 5%
same,"caspase-8 activation, effect in words",caspase-8,lack of activation of caspase-8
same,"p38 MAPK activity (phosphorylated/total), effect in words",p38 MAPK [11],exerted upregulatory activity at 50 and 100 μM
"Oc1ccc(/C=C/c2cc(O)cc(O)c2)cc1 [RVT, 3,4′,5-trihydroxy-trans-stilbene, reference compound]",SA-β-Gal,HOSE cells [1]; 10 μM,101 ± 2%
same,SA-β-Gal,HOSE cells [1]; 50 μM,101 ± 2%
same,SA-β-Gal,HOSE cells [1]; 100 μM,100 ± 3%
same,"SOD activity, effect in words",[2],upregulated activity of the enzyme
same,"proliferation, effect in words",A2780 cells,effectively reduced the expandability
same,SA-β-Gal,HPMCs [3]; 10 μM,100 ± 2%
same,SA-β-Gal,HPMCs [3]; 50 μM,102 ± 4%
same,SA-β-Gal,HPMCs [3]; 100 μM,100 ± 1%
same,"proliferation, effect in words",SKOV-3 cells [4],such a low dose was effective in SKOV-3 cultures only
same,"SA-β-Gal activity (senescence), effect in words",SKOV-3 cells [5],cellular senescence was elicited
same,IC50,OVCAR-3,525 µM
same,IC50,HPMCs [6],495 µM
same,"p38 MAPK activity (phosphorylated/total), effect in words",p38 MAPK [7],increased the activity of p38 MAPK at 100 μM
same,SOD,[8]; 10 μM,111 ± 3^∗ %
same,SOD,[8]; 50 μM,112 ± 3^∗ %
same,SOD,[8]; 100 μM,121 ± 4^∗ %
same,ROS,HOSE cells [9]; 10 μM,103 ± 3%
same,ROS,HOSE cells [9]; 50 μM,105 ± 4%
same,ROS,HOSE cells [9]; 100 μM,121 ± 7^∗ %
same,Proliferation,HOSE cells [10]; 10 μM,103 ± 4%
same,Proliferation,HOSE cells [10]; 50 μM,102 ± 1%
same,Proliferation,HOSE cells [10]; 100 μM,104 ± 2%
same,"caspase-8 activation, effect in words",caspase-8,no effect
same,"p38 MAPK activity (phosphorylated/total), effect in words",p38 MAPK [11],failed to activate p38 MAPK
